According to PubChem BioAssay AID1259407 (Chemical Carcinogenesis Research Information System (CCRIS), 2018):
Calls of active or inactive are those of the source. How the calls were made is not given here.

Test system: CCRIS mutagenicity, Ames/micronucleus/aberration tests
Experiment: CCRIS mutagenicity studies
[1] = Test System: AMES SALMONELLA TYPHIMURIUM, Strain/Indicator: TA98, Metabolic Activation: NONE, Method: PREINCUBATION
[2] = Test System: AMES SALMONELLA TYPHIMURIUM, Strain/Indicator: TA98, Metabolic Activation: NONE, Method: STANDARD PLATE
[3] = Test System: AMES SALMONELLA TYPHIMURIUM, Strain/Indicator: TA100, Metabolic Activation: NONE, Method: PREINCUBATION
[4] = Test System: AMES SALMONELLA TYPHIMURIUM, Strain/Indicator: TA100, Metabolic Activation: NONE, Method: STANDARD PLATE
[5] = Test System: AMES SALMONELLA TYPHIMURIUM, Strain/Indicator: TA100, Metabolic Activation: RAT, LIVER, S-9, AROCLOR 1254, Method: PREINCUBATION

For `O=c1[nH]c(=O)n([C@H]2C[C@H](O)[C@@H](CO)O2)cc1/C=C/Br`, the mutagenic call (Test System: AMES SALMONELLA TYPHIMURIUM, Strain/Indicator: TA97, Metabolic Activation: NONE, Method: PREINCUBATION) was “inactive; negative”, the mutagenic call (Test System: AMES SALMONELLA TYPHIMURIUM, Strain/Indicator: TA97, Metabolic Activation: RAT, LIVER, S-9, AROCLOR 1254, Method: PREINCUBATION) was “inactive; negative” and the mutagenic call [1] was “inactive; negative”. The mutagenic call [2] was “inactive; negative”, the mutagenic call (Test System: AMES SALMONELLA TYPHIMURIUM, Strain/Indicator: TA98, Metabolic Activation: RAT, LIVER, S-9, AROCLOR 1254, Method: PREINCUBATION) was “inactive; negative” and the mutagenic call (Test System: AMES SALMONELLA TYPHIMURIUM, Strain/Indicator: TA98, Metabolic Activation: RAT, LIVER, S-9, AROCLOR 1254, Method: STANDARD PLATE) was “inactive; negative”. For the same molecule, the mutagenic call [3] was “inactive; negative”, the mutagenic call [4] was “inactive; negative” and the mutagenic call [5] was “inactive; negative”. For the same molecule, the mutagenic call (Test System: AMES SALMONELLA TYPHIMURIUM, Strain/Indicator: TA100, Metabolic Activation: RAT, LIVER, S-9, AROCLOR 1254, Method: STANDARD PLATE) was “inactive; negative”, the mutagenic call (Test System: AMES SALMONELLA TYPHIMURIUM, Strain/Indicator: TA102, Metabolic Activation: NONE, Method: PREINCUBATION) was “inactive; negative” and the mutagenic call (Test System: AMES SALMONELLA TYPHIMURIUM, Strain/Indicator: TA102, Metabolic Activation: RAT, LIVER, S-9, AROCLOR 1254, Method: PREINCUBATION) was “inactive; negative”. For the same molecule, the mutagenic call (Test System: AMES SALMONELLA TYPHIMURIUM, Strain/Indicator: TA104, Metabolic Activation: NONE, Method: PREINCUBATION) was “inactive; negative”, the mutagenic call (Test System: AMES SALMONELLA TYPHIMURIUM, Strain/Indicator: TA104, Metabolic Activation: RAT, LIVER, S-9, AROCLOR 1254, Method: PREINCUBATION) was “inactive; negative” and the mutagenic call (Test System: AMES SALMONELLA TYPHIMURIUM, Strain/Indicator: TA1535, Metabolic Activation: NONE, Method: PREINCUBATION) was “inactive; negative”. For the same molecule, the mutagenic call (Test System: AMES SALMONELLA TYPHIMURIUM, Strain/Indicator: TA1535, Metabolic Activation: NONE, Method: STANDARD PLATE) was “inactive; negative”, the mutagenic call (Test System: AMES SALMONELLA TYPHIMURIUM, Strain/Indicator: TA1535, Metabolic Activation: RAT, LIVER, S-9, AROCLOR 1254, Method: PREINCUBATION) was “inactive; negative” and the mutagenic call (Test System: AMES SALMONELLA TYPHIMURIUM, Strain/Indicator: TA1535, Metabolic Activation: RAT, LIVER, S-9, AROCLOR 1254, Method: STANDARD PLATE) was “inactive; negative”. For the same molecule, the mutagenic call (Test System: AMES SALMONELLA TYPHIMURIUM, Strain/Indicator: TA1537, Metabolic Activation: NONE, Method: PREINCUBATION) was “inactive; negative”, the mutagenic call (Test System: AMES SALMONELLA TYPHIMURIUM, Strain/Indicator: TA1537, Metabolic Activation: NONE, Method: STANDARD PLATE) was “inactive; negative” and the mutagenic call (Test System: AMES SALMONELLA TYPHIMURIUM, Strain/Indicator: TA1537, Metabolic Activation: RAT, LIVER, S-9, AROCLOR 1254, Method: PREINCUBATION) was “inactive; negative”. For the same molecule, the mutagenic call (Test System: AMES SALMONELLA TYPHIMURIUM, Strain/Indicator: TA1537, Metabolic Activation: RAT, LIVER, S-9, AROCLOR 1254, Method: STANDARD PLATE) was “inactive; negative”, the mutagenic call (Test System: AMES SALMONELLA TYPHIMURIUM, Strain/Indicator: TA1538, Metabolic Activation: NONE, Method: PREINCUBATION) was “inactive; negative” and the mutagenic call (Test System: AMES SALMONELLA TYPHIMURIUM, Strain/Indicator: TA1538, Metabolic Activation: NONE, Method: STANDARD PLATE) was “inactive; negative”. For the same molecule, the mutagenic call (Test System: AMES SALMONELLA TYPHIMURIUM, Strain/Indicator: TA1538, Metabolic Activation: RAT, LIVER, S-9, AROCLOR 1254, Method: PREINCUBATION) was “inactive; negative”, the mutagenic call (Test System: AMES SALMONELLA TYPHIMURIUM, Strain/Indicator: TA1538, Metabolic Activation: RAT, LIVER, S-9, AROCLOR 1254, Method: STANDARD PLATE) was “inactive; negative” and the mutagenic call (Test System: CHINESE HAMSTER OVARY, Strain/Indicator: CHO-K1-BH4 (HGPRT), Metabolic Activation: NONE) was “inactive; negative”. For the same molecule, the mutagenic call (Test System: CHINESE HAMSTER V-79, Strain/Indicator: V-79/8-AZAGUANINE, Metabolic Activation: NONE) was “inactive; negative”, the mutagenic call (Test System: MOUSE LYMPHOMA, Strain/Indicator: L5178Y (TK+/TK-), Metabolic Activation: NONE, Method: SUSPENSION/PLATE) was “active; positive” and the mutagenic call (Test System: MOUSE LYMPHOMA, Strain/Indicator: L5178Y (TK+/TK-), Metabolic Activation: RAT, LIVER, S-9, AROCLOR 1254, Method: SUSPENSION/PLATE) was “inactive; negative”. The mutagenic call (Test System: UDS RAT PRIMARY HEPATOCYTES, Strain/Indicator: THY INCORP (NON-S-PHASE), Metabolic Activation: NONE) was “inactive; negative” and the mutagenic call (Test System: UDS RODENT HEPATOCYTES, Strain/Indicator: THY INCORP, Metabolic Activation: NONE) was “inactive; negative”.
With `CC/C=C/C=O` the mutagenic call [3] was “inactive; negative”, the mutagenic call (Test System: AMES SALMONELLA TYPHIMURIUM, Strain/Indicator: TA100, Metabolic Activation: NONE, Method: PREINCUBATION (THREEFOLD CELL DENSITY)) was “active; positive” and the mutagenic call [5] was “active; positive”. The mutagenic call (Test System: AMES SALMONELLA TYPHIMURIUM, Strain/Indicator: TA100, Metabolic Activation: RAT, LIVER, S-9, AROCLOR 1254, Method: PREINCUBATION (THREEFOLD CELL DENSITY)) was “active; positive”, the mutagenic call (Test System: CHINESE HAMSTER V-79, Strain/Indicator: V-79/6-THIOGUANINE, Metabolic Activation: NONE, Method: STANDARD PLATE) was “active; positive” and the mutagenic call (Test System: CHINESE HAMSTER V-79, Strain/Indicator: V-79/OUABAIN, Metabolic Activation: NONE, Method: STANDARD PLATE) was “inactive; negative”.
With `C=CCc1[c-]cccc1.C=CCc1[c-]cccc1.[Pt+2].c1ccc(P(c2ccccc2)c2ccccc2)cc1.c1ccc(P(c2ccccc2)c2ccccc2)cc1` the mutagenic call (Test System: AMES SALMONELLA TYPHIMURIUM, Strain/Indicator: TA92, Metabolic Activation: NONE, Method: STANDARD PLATE) was “inactive; negative”, the mutagenic call [2] was “inactive; negative” and the mutagenic call [4] was “inactive; negative”. The mutagenic call (Test System: AMES SALMONELLA TYPHIMURIUM, Strain/Indicator: TA2410, Metabolic Activation: NONE, Method: STANDARD PLATE) was “inactive; negative”.
For `O=C1CN(/N=C/C=C/c2ccc([N+](=O)[O-])o2)C(=O)N1`, the mutagenic call (Test System: AMES SALMONELLA TYPHIMURIUM, Strain/Indicator: TA97, Metabolic Activation: NONE, Method: STANDARD PLATE) was “active; positive”, the mutagenic call [2] was “active; positive” and the mutagenic call [4] was “active; positive”. For the same molecule, the mutagenic call (Test System: E. COLI WP2, Strain/Indicator: WP2, Metabolic Activation: NONE, Method: SPOT) was “active; positive”.
`O=[N+]([O-])c1cc(-c2ccccc2)ccc1O` was tested, and the mutagenic call [1] was “inactive; negative”.
